According to paper PMC2064136 (The Journal of Cell Biology, 2007):

How the values were obtained:
[1] = system: Xenopus egg mitochondria (XEM); format: biochemical, Xenopus laevis; conditions: for concentration that protected XEM against at least 20 nM tBid: titrations in XEM supplemented with tBid (Fig. 5 A)
[2] = system: mouse liver mitochondria (MLM); format: biochemical
[3] = system: Bak; conditions: ref Willis et al., 2005; cited from earlier work
[4] = full-length Bcl-xL, tBid 2 h (Fig. 3)

Bcl-xL: recombinant full-length human Bcl-xL
concentration protecting XEM from tBid [1, 4]: ~20 nM
concentration that protected XEM against at least 20 nM tBid [1]: 30 nM
concentration protecting MLM from tBid [2, 4]: ~20 nM
binding to Bak [3]: bind Bak

Bcl-xLΔC24: C-terminally truncated form of human Bcl-xL
loss of activity relative to full-length Bcl-xL in protecting MLM from tBid ([2]; MLM, tBid (Fig. 3 B)): 10–30 times

Mcl-1: recombinant mouse Mcl-1ΔN151ΔC11 with five additional N-terminal residues (GPLGS)
relative protection of XEM from different BH3 peptides ([1]; Fig. S4): protected XEM better from the Bad than from the Bim or Puma peptides
concentration that protected XEM against at least 20 nM tBid [1]: 300 nM
block of the permeabilizing effect of Bad, Bmf and Hrk BH3 peptides on MLM ([2]; MLM incubated as for XEM with mBad, Bmf, Hrk BH3 peptides (Fig. 4 B)): also blocked
binding to Bak [3]: bind Bak
